Measurements reported in ChEMBL document CHEMBL5154732, “Discovery of indol-6-yl-pyrrolo[2,3-c]pyridin-7-one derivatives as bromodomain-containing protein 4 (BRD4) inhibitors for the treatment of kidney fibrosis” (Eur J Med Chem, 2022).
The source made the active and inactive calls. The calls are words filed in the database; no cut-off is given here.

Columns and labels:
[1] = molecular target: Bromodomain-containing protein 4 (Homo sapiens, UniProt O60885); assay: Inhibition of His-tagged […] recombinant BRD4 (unknown origin) (21 to 153 residues) using SGRGK(Ac)GGK(Ac)GLGK(Ac)GGAK(Ac)RHRK(Biotin)-OH as substrate measured after 1 hr by HTRF assay
Mus musculus [2] = assay: Nephroprotective activity against unilateral ureteral obstruction kidney injury C57BL/6J mouse model assessed as decreased tubular injury score at 100 mg/kg, ip administered for 8 consecutive days by H & E staining based assay; format: functional, organism-based; settings: time 8.0 day
Mus musculus [3] = assay: Nephroprotective activity against unilateral ureteral obstruction kidney injury C57BL/6J mouse model assessed as decreased kidney damage at 100 mg/kg, ip administered for 8 consecutive days by H & E staining based assay; format: functional, organism-based; settings: time 8.0 day
Mus musculus [4] = assay: Nephroprotective activity against unilateral ureteral obstruction kidney injury C57BL/6J mouse model assessed as decreased fibrotic scores at 100 mg/kg, ip administered for 8 consecutive days by Masson's staining based assay; format: functional, organism-based; settings: time 8.0 day
Mus musculus [5] = assay: Anti-fibrotic activity against unilateral ureteral obstruction kidney injury C57BL/6J mouse model assessed as suppression of UUO-induced alpha-SMA expression in kidney at 100 mg/kg, ip administered daily measured after 7 days by immunohistochemistry staining analysis; format: functional, organism-based; settings: time 7.0 day
[6] = molecular target: Bromodomain-containing protein 3 (Homo sapiens, UniProt Q15059); assay: Inhibition of His-tagged recombinant BRD3 (unknown origin) (11 to 166 residues) using SGRGK(Ac)GGK(Ac)GLGK(Ac)GGAK(Ac)RHRK(Biotin)-OH as substrate measured after 1 hr by HTRF assay
Chain of Bromodomain-containing protein 3 (Q15059 whole entry, the tested form may be a part): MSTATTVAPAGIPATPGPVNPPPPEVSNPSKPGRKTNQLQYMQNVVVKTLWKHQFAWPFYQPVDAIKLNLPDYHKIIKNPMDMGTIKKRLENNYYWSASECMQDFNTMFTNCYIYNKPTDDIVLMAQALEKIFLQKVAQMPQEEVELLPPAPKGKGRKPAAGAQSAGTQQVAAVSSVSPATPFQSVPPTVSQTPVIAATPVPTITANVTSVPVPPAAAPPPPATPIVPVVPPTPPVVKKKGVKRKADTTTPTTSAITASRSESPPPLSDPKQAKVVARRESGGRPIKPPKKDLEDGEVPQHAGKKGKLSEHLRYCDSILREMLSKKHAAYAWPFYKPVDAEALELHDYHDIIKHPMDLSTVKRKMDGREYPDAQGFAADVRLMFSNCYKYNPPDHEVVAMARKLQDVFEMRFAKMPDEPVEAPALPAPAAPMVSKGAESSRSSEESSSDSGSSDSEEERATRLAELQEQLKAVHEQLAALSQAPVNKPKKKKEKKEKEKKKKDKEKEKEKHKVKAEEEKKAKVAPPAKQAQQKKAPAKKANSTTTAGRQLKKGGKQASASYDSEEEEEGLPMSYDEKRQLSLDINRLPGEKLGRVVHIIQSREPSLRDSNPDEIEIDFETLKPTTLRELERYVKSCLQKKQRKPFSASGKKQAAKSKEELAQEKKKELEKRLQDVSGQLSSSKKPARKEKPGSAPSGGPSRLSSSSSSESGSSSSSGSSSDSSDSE

[7] = Toxicity in mouse assessed as pathological changes in spleen at 30 mg/kg/day by H and E staining method; format: organism-based; settings: in vivo
[8] = molecular target: T1, Bromodomain and PHD finger-containing protein 3 (Homo sapiens, UniProt Q9ULD4); assay: Inhibition of His-tagged recombinant BRPF3 (unknown origin) (11 to 188 residues) using SGRGK(Ac)GGK(Ac)GLGK(Ac)GGAK(Ac)RHRK(Biotin)-OH as substrate measured after 1 hr by HTRF assay
T1 sequence (Q9ULD4 whole entry): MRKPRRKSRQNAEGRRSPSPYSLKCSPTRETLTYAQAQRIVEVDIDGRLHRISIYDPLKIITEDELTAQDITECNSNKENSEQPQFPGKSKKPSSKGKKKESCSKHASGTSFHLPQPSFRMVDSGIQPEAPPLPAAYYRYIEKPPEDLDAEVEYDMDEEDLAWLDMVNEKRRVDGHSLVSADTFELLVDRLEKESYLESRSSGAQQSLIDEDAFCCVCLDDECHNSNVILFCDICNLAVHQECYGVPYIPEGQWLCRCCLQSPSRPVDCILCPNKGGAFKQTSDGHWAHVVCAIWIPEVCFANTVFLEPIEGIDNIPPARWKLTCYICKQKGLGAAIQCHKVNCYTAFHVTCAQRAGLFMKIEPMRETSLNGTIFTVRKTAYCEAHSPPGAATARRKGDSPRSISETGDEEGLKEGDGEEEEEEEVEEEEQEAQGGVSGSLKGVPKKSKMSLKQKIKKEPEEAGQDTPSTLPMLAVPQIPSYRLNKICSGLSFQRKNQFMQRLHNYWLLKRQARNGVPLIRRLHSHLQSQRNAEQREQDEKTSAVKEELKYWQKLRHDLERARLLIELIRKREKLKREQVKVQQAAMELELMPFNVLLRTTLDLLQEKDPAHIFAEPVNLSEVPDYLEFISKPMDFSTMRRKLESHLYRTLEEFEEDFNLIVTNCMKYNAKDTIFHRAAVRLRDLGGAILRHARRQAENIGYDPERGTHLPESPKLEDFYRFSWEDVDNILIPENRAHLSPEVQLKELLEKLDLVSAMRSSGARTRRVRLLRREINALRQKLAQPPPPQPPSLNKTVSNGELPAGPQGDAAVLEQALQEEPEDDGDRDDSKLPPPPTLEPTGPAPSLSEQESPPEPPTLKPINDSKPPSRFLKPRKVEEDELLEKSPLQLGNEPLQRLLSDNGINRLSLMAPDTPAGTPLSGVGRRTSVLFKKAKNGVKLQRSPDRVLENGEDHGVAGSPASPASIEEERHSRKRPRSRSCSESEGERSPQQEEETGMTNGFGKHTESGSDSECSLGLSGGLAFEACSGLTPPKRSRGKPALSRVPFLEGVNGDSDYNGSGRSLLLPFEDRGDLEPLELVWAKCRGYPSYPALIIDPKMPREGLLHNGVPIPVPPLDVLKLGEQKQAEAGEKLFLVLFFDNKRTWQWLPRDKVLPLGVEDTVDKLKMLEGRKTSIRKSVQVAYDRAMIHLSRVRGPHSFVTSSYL

[9] = Clearance in ICR mouse at 2 mg/kg, iv measured at 0.083 to 24 hrs by LC-MS/MS analysis; format: ADME, organism-based; settings: in vivo, time 0.083-24 hrs
[10] = Toxicity in mouse assessed as effect on serum urea level at 30 mg/kg/day; format: organism-based; settings: in vivo
[11] = Toxicity in mouse assessed as effect on alanine aminotransferase level in serum at 30 mg/kg/day; format: organism-based; settings: in vivo
[12] = molecular target: T2, Bromodomain-containing protein 1 (Homo sapiens, UniProt O95696); assay: Inhibition of His-tagged recombinant BRD1 (unknown origin) (11 to 190 residues) using SGRGK(Ac)GGK(Ac)GLGK(Ac)GGAK(Ac)RHRK(Biotin)-OH as substrate measured after 1 hr by HTRF assay
T2 sequence (O95696 whole entry): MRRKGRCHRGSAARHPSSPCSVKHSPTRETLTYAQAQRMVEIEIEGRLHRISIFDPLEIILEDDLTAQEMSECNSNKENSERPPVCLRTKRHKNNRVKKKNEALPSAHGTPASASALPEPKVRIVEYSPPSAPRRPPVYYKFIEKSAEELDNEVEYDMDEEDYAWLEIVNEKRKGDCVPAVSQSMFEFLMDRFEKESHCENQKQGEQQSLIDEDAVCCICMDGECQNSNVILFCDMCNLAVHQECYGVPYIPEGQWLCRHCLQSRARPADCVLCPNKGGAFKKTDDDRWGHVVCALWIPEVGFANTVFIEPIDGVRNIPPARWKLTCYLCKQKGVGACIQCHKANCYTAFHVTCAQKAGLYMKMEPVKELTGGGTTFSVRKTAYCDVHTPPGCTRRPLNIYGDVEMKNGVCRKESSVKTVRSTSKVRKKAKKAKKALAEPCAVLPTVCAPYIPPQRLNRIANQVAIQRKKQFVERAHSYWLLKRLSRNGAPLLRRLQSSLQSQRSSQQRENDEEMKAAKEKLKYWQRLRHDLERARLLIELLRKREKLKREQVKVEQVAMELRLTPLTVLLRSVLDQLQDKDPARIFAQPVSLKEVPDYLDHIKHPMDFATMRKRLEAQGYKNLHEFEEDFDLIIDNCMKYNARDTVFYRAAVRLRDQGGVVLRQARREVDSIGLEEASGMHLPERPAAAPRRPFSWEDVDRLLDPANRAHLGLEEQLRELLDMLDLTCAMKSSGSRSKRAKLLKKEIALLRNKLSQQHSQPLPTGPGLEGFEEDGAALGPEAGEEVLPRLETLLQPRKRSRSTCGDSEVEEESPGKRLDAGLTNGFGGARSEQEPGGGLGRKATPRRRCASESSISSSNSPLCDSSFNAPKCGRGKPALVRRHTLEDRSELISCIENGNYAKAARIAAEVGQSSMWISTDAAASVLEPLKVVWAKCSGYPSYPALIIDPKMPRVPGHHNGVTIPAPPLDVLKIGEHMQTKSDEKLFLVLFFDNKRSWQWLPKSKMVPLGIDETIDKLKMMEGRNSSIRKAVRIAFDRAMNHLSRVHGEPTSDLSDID

[13] = Volume of distribution at steady state in ICR mouse at 2 mg/kg, iv measured at 0.083 to 24 hrs by LC-MS/MS analysis; format: ADME, organism-based; settings: in vivo, time 0.083-24 hrs, read-out: Vdss
[14] = AUC (0 to t) in ICR mouse at 30 mg/kg, po measured at 0.083 to 24 hrs by LC-MS/MS analysis; format: ADME, organism-based; design: time lower 0.083 hrs, dose 30 mg/kg, time upper 24 hrs, route po; settings: in vivo
[15] = Tmax in ICR mouse at 30 mg/kg, po measured at 0.083 to 24 hrs by LC-MS/MS analysis; format: ADME, organism-based; settings: in vivo, time 0.083-24 hrs
[16] = molecular target: Bromodomain testis-specific protein (Homo sapiens, UniProt Q58F21); assay: Inhibition of His-tagged recombinant BRDT (unknown origin) (21 to 153 residues) using SGRGK(Ac)GGK(Ac)GLGK(Ac)GGAK(Ac)RHRK(Biotin)-OH as substrate measured after 1 hr by HTRF assay
[17] = Toxicity in mouse assessed as effect on serum creatinine level at 30 mg/kg/day; format: organism-based; settings: in vivo
[18] = Toxicity in mouse assessed as pathological changes in heart at 30 mg/kg/day by H and E staining method; format: organism-based; settings: in vivo
[19] = Toxicity in mouse assessed as effect on aspartate aminotransferase level in serum at 30 mg/kg/day; format: organism-based; settings: in vivo
[20] = Half life in ICR mouse at 30 mg/kg, po measured at 0.083 to 24 hrs by LC-MS/MS analysis; format: ADME, organism-based; settings: in vivo, time 0.083-24 hrs
[21] = Toxicity in mouse assessed as pathological changes in liver at 30 mg/kg/day by H and E staining method; format: organism-based; settings: in vivo
[22] = Oral bioavailability in ICR mouse at 30 mg/kg measured at 0.083 to 24 hrs by LC-MS/MS analysis; format: ADME, organism-based; settings: in vivo, time 0.083-24 hrs
[23] = Toxicity in mouse assessed as pathological changes in lung at 30 mg/kg/day by H and E staining method; format: organism-based; settings: in vivo
[24] = molecular target: Bromodomain-containing protein 2 (Homo sapiens, UniProt P25440); assay: Inhibition of His-tagged recombinant BRD2 (unknown origin) (11 to 162 residues) using SGRGK(Ac)GGK(Ac)GLGK(Ac)GGAK(Ac)RHRK(Biotin)-OH as substrate measured after 1 hr by HTRF assay
Chain of Bromodomain-containing protein 2 (P25440 whole entry, the tested form may be a part): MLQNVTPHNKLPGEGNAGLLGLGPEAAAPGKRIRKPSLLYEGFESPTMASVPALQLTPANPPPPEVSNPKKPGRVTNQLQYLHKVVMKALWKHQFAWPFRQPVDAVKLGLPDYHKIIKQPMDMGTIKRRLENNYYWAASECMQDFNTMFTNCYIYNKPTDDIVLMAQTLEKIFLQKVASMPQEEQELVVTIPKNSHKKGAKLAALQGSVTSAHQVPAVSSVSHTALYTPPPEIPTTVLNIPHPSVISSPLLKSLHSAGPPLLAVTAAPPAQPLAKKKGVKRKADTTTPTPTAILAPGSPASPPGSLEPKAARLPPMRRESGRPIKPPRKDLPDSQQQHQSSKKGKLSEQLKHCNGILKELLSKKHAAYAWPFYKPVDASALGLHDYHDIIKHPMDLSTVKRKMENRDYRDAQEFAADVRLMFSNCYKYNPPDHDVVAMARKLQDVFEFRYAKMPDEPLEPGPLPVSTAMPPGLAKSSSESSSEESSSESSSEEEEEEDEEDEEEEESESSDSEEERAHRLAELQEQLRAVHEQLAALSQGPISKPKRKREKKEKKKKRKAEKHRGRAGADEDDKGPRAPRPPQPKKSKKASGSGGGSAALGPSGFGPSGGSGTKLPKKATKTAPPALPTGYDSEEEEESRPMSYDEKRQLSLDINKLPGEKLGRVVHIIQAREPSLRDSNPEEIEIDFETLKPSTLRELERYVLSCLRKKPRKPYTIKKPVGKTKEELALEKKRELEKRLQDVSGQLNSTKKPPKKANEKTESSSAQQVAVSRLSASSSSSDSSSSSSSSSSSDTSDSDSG

[25] = AUC (0 to infinity) in ICR mouse at 30 mg/kg, po measured at 0.083 to 24 hrs by LC-MS/MS analysis; format: ADME, organism-based; design: time lower 0.083 hrs, dose 30 mg/kg, time upper 24 hrs, route po; settings: in vivo
[26] = Cmax in ICR mouse at 30 mg/kg, po measured at 0.083 to 24 hrs by LC-MS/MS analysis; format: ADME, organism-based; design: time 0.083-24 hrs, dose 30 mg/kg, route po; settings: in vivo

Cc1noc(C)c1-c1ccc2ccn(Cc3ccc(C(F)(F)F)cc3)c2c1
IC50 [1]: > 3000 nM

CCCC(C)n1ccc2ccc(C3=CNC(=O)C4NC=CC34)cc21 (stereo not drawn)
IC50 [1]: 578 nM

Cc1cn(Cc2ccccc2)c2cc(-c3cn(C)c(=O)c4[nH]ccc34)ccc12
IC50 [1]: 514 nM

COc1cc(Cn2ccc3ccc(C4=CNC(=O)C5NC=CC45)cc32)cc(OC)c1 (stereo not drawn)
IC50 [1]: 559 nM

Cc1noc(C)c1-c1ccc2ccn(Cc3cc(F)cc(F)c3)c2c1
IC50 [1]: > 3000 nM

Cc1noc(C)c1-c1ccc2ccn(Cc3ccccc3)c2c1
IC50 [1]: 2650 nM

Cc1noc(C)c1-c1ccc2ccn(Cc3ccccn3)c2c1
IC50 [1]: 481 nM

Cc1noc(C)c1-c1ccc2ccn(C3CCCC3)c2c1
IC50 [1]: > 3000 nM

O=C1NC=C(c2ccc3ccn(Cc4ccccc4)c3c2)C2C=CNC12 (stereo not drawn)
IC50 [1]: 471 nM

CC(c1ccccc1)n1ccc2ccc(-c3cn(C)c(=O)c4[nH]ccc34)cc21 (stereo not drawn)
IC50 [1]: 504 nM

Cc1cn(Cc2cc(F)cc(F)c2)c2cc(C3=CN(C)C(=O)C4NC=CC34)ccc12 (stereo not drawn)
IC50 [1]: 419 nM

O=C1NC=C(c2ccc3ccn(Cc4ccc(F)cc4)c3c2)C2C=CNC12 (stereo not drawn)
IC50 [1]: 417 nM

CCCC(C)n1ccc2ccc(-c3c(C)noc3C)cc21 (stereo not drawn)
IC50 [1]: 2440 nM

O=C1NC=C(c2ccc3ccn(Cc4cc(F)cc(F)c4)c3c2)C2C=CNC12 (stereo not drawn)
IC50 [1]: 347 nM

Cc1noc(C)c1-c1ccc2ccn(Cc3ccc(F)cc3)c2c1
IC50 [1]: > 3000 nM

Cc1noc(C)c1-c1ccc2c(C)cn(Cc3cc(F)cc(F)c3)c2c1
IC50 [1]: > 3000 nM

CCC(C)n1ccc2ccc(-c3c(C)noc3C)cc21 (stereo not drawn)
IC50 [1]: > 3000 nM

CCC(C)n1ccc2ccc(-c3cn(C)c(=O)c4[nH]ccc34)cc21 (stereo not drawn)
IC50 [1]: 674 nM

Cc1noc(C)c1-c1ccc2c(C)cn(Cc3ccccc3)c2c1
IC50 [1]: > 3000 nM

Cc1sc2c(c1C)C(c1ccc(Cl)cc1)=N[C@@H](C(=O)OC(C)(C)C)c1nnc(C)n1-2
IC50 [1]: 92 nM
Activity (Mus musculus [2]): Active
Activity (Mus musculus [3]): Active
Activity (Mus musculus [4]): Active
Activity (Mus musculus [5]): Active

Cc1noc(C)c1-c1ccc2ccn(C(C)c3ccccc3)c2c1 (stereo not drawn)
IC50 [1]: > 3000 nM

COc1cc(Cn2ccc3ccc(-c4c(C)noc4C)cc32)cc(OC)c1
IC50 [1]: > 3000 nM

Cn1cc(-c2ccc3ccn(Cc4ccccn4)c3c2)c2cc[nH]c2c1=O
IC50 [6]: 502 nM
IC50 [1]: 107 nM
Activity [7]: Non-Toxic
IC50 [8]: > 1000 nM
clearance [9]: 125 mL/min/kg
Activity [10]: Non-Toxic
Activity [11]: Non-Toxic
IC50 [12]: > 1000 nM
Vd [13]: 2.08 L/kg
AUC(0-t) [14]: 319 ng·h/mL
Tmax [15]: 11.4 min
IC50 [16]: > 1000 nM
Activity [17]: Non-Toxic
Activity [18]: Non-Toxic
Activity [19]: Non-Toxic
half-life [20]: 80.4 min
Activity [21]: Non-Toxic
bioavailability [22]: 7.91%
Activity [23]: Non-Toxic
IC50 [24]: 718 nM
AUC(0-inf) [25]: 323 ng·h/mL
Cmax [26]: 390 ng/mL
